The values that follow come from US20240270821A1, “GIP/GLP1/GCG TRI-RECEPTOR AGONISTS AND USES THEREOF” (priority 2023, published 2024).

The EC50 is the concentration at which the effect is half-maximal.

Where two headings read alike, the source gives them in different places. Starred links: 1 amine or outer side, 2 acyl side, 3 side chain; linkers in the order of their positions; H or OH if unused. Non-standard residues stand in square brackets, D forms with d. Residues, ends and D or L forms follow the SMILES beside them. Groups on a side chain read outwards from the residue. No end group written: not given here. *: point of attachment. Phe(4-NO2) = N[C@@H](Cc1ccc([N+](=O)[O-])cc1)C(=O)O; C18 diacid = O=C(O)CCCCCCCCCCCCCCCCC(=O)*; αMePhe(2-F) = C[C@](N)(Cc1ccccc1F)C(=O)O; γGlu = O=C(O)[C@H](CCC(=O)[*:2])N[*:1]; αMe4Pal = C[C@](N)(Cc1ccncc1)C(=O)O; αMeY = C[C@](N)(Cc1ccc(O)cc1)C(=O)O; 4Pal = N[C@@H](Cc1ccncc1)C(=O)O; αMeL = CC(C)C[C@](C)(N)C(=O)O; αMeS = C[C@](N)(CO)C(=O)O; Orn = NCCC[C@H](N)C(=O)O; AEEA = NCCOCCOCC(=O)O; Aib = CC(C)(N)C(=O)O

Type in all cases: cell-based
In one experiment the target is hGcgR (Homo sapiens, UniProt P47871). The experiment is described as follows: Functional cAMP activation in the presence of 0.1% casein (no HSA). As to conditions: read-out: Relative cAMP EC50, hGcgR.
hGcgR, sequence (P47871 26-477): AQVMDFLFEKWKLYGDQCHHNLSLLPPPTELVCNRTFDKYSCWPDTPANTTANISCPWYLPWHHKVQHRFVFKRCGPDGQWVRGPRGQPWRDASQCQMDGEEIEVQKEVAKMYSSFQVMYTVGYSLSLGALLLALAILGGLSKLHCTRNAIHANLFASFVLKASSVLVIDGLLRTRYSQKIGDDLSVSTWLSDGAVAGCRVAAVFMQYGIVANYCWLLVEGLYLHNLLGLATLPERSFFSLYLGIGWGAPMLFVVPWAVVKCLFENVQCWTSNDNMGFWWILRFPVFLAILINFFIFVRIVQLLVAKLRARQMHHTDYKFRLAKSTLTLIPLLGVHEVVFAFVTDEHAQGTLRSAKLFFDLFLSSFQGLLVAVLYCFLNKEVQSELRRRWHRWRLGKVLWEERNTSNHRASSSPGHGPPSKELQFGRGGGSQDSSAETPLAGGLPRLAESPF
Experiment [1] addresses T1, hGLP-1R (Homo sapiens, UniProt P43220). As to the kind of experiment: Functional cAMP activity in the presence of 1% HSA. As to conditions: read-out: cAMP Rel EC50, hGLP-1R.
The target in experiment [2] is T1, hGLP-1R. As to the kind of experiment: Functional cAMP activation in the presence of 0.1% casein (no HSA). As to conditions: read-out: Relative cAMP EC50, hGLP-1R.
Experiment [3] deals with T2, hGIPR (Homo sapiens, UniProt P48546).
T2 sequence (P48546 22-466): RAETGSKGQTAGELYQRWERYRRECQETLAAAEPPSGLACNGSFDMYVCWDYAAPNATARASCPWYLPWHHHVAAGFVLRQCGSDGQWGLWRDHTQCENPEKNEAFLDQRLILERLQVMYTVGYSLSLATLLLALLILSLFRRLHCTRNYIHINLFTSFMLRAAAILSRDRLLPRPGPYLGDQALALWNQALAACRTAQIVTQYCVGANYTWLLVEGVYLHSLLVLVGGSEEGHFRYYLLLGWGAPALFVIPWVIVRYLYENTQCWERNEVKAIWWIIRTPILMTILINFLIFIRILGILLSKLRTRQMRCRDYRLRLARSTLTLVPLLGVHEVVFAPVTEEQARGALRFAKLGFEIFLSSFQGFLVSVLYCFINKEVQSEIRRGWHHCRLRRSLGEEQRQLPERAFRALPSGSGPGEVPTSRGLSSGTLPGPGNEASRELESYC
The experiment is described as above. As to conditions: read-out: Relative cAMP EC50, hGIPR.

A further experiment has as its target human GcgR (Homo sapiens, UniProt P47871). As to the kind of experiment: Functional cAMP activity in the presence of 1% HSA. The note with it: read-out: cAMP Rel EC50, hGcgR.
Experiment [4] addresses T2, hGIPR. The experiment is described as follows: Functional cAMP activity in the presence of 1% HSA. As to conditions: read-out: cAMP Rel EC50, hGIPR.
[5] abbreviates: in the presence of 0.1% casein (no HSA), geometric mean.
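Throughout, for Relative cAMP EC50, hGIPR: intracellular cAMP rise after 30 min at 37 °C read by HTRF against a standard curve, scaled between buffer alone (0%) and top control ligand concentration (100%), four-parameter fit.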
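Throughout, for Relative cAMP EC50, hGLP-1R: intracellular cAMP rise after 30 min at 37 °C read by HTRF, normalized between buffer only (0%) and maximal control ligand (100%), four-parameter variable-slope fit.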
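Throughout, for Relative cAMP EC50, hGcgR: intracellular cAMP rise after 30 min at 37 °C, read by HTRF against a cAMP standard curve, scaled from buffer only (0%) to maximal control ligand response (100%).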

T1 sequence (P43220 24-463): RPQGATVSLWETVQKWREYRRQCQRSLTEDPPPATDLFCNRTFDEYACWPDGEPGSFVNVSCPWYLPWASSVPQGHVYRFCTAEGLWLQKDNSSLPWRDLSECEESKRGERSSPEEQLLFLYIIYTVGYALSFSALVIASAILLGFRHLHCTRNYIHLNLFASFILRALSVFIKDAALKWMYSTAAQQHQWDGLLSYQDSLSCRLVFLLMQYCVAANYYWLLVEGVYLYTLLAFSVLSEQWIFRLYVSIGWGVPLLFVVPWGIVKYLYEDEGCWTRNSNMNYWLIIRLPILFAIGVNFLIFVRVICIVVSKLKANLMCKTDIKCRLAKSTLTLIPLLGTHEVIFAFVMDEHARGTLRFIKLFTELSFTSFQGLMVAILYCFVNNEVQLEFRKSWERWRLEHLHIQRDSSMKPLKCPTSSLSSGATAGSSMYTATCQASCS
human GcgR, sequence (P47871 26-477): as the sequence (P47871 26-477) above

Regarding `CC[C@H](C)[C@H](NC(=O)[C@H](CC(C)C)NC(=O)[C@](C)(Cc1ccc(O)cc1)NC(=O)[C@@H](CCC(=O)O)NC(=O)[C@@H](NC(=O)[C@H](Cc1ccccc1)NC(=O)[C@H](CC(N)=O)NC(=O)C(C)(C)NC(=O)[C@H](CCC(N)=O)NC(=O)[C@H](C)NC(=O)[C@H](CCCCNC(=O)COCCOCCNC(=O)CC[C@H](NC(=O)CC[C@H](NC(=O)CCCCCCCCCCCCCCCCC(=O)O)C(=O)O)C(=O)O)NC(=O)[C@H](CCCN)NC(=O)[C@H](CC(=O)O)NC(=O)[C@H](CC(C)C)NC(=O)[C@](C)(CC(C)C)NC(=O)[C@@H](NC(=O)[C@](C)(CO)NC(=O)[C@H](Cc1ccncc1)NC(=O)[C@H](CC(=O)O)NC(=O)[C@H](CO)NC(=O)[C@@H](NC(=O)[C@](C)(Cc1ccccc1F)NC(=O)[C@@H](NC(=O)CNC(=O)[C@H](CCC(N)=O)NC(=O)C(C)(C)NC(=O)[C@@H](N)Cc1ccc(O)cc1)[C@@H](C)O)[C@@H](C)O)[C@@H](C)CC)[C@@H](C)CC)C(=O)N[C@@H](CCC(=O)O)C(=O)NCC(=O)NCC(=O)N1CCC[C@H]1C(=O)N[C@@H](CO)C(=O)N[C@@H](CO)C(=O)NCC(=O)N[C@@H](CCC(=O)O)C(=O)N1CCC[C@H]1C(=O)N1CCC[C@H]1C(=O)N1CCC[C@H]1C(=O)N[C@@H](CCC(=O)O)C(N)=O` [Example 451] (H-Y[Aib]QGT[αMePhe(2-F)]TSD[4Pal][αMeS]I[αMeL]LD[Orn]K([AEEA-γGlu-γGlu-C18 diacid])AQ[Aib]NFI[dE][αMeY]LIEGGPSSGEPPPE-NH2; N-terminus assumed), the EC50 at hGcgR came out at 4.12 nM; at hGLP-1R [1] it was 10.9 nM; on hGLP-1R [2], 0.256 nM; on hGIPR [3] it was 0.0101 nM; on human GcgR, 384 nM; at hGIPR [4], 0.96 nM.

With `CC[C@H](C)[C@H](NC(=O)[C@H](Cc1ccccc1)NC(=O)[C@H](C)NC(=O)C(C)(C)NC(=O)[C@H](CCC(N)=O)NC(=O)[C@H](C)NC(=O)[C@H](CCCCNC(=O)COCCOCCNC(=O)CC[C@H](NC(=O)CCCCCCCCCCCCCCCCC(=O)O)C(=O)O)NC(=O)[C@H](CCCCN)NC(=O)[C@H](CC(=O)O)NC(=O)[C@H](CC(C)C)NC(=O)[C@](C)(CC(C)C)NC(=O)[C@@H](NC(=O)[C@H](CO)NC(=O)[C@H](Cc1ccc([N+](=O)[O-])cc1)NC(=O)[C@H](CC(=O)O)NC(=O)[C@H](CO)NC(=O)[C@@H](NC(=O)[C@](C)(Cc1ccccc1F)NC(=O)[C@@H](NC(=O)CNC(=O)[C@H](CCC(N)=O)NC(=O)C(C)(C)NC(=O)[C@@H](N)Cc1ccc(O)cc1)[C@@H](C)O)[C@@H](C)O)[C@@H](C)CC)C(=O)N[C@@H](CCC(=O)O)C(=O)N[C@@H](Cc1ccc(O)cc1)C(=O)N[C@@H](CC(C)C)C(=O)N[C@@H](CCC(=O)O)C(=O)N[C@@H](CCC(=O)O)C(=O)NCC(=O)NCC(=O)N1CCC[C@H]1C(=O)N[C@@H](CO)C(=O)N[C@@H](CO)C(=O)NCC(=O)N[C@@H](C)C(=O)N1CCC[C@H]1C(=O)N1CCC[C@H]1C(=O)N1CCC[C@H]1C(=O)N[C@@H](CCC(=O)O)C(N)=O` [Example 495] (H-Y[Aib]QGT[αMePhe(2-F)]TSD[Phe(4-NO2)]SI[αMeL]LDKK([AEEA-γGlu-C18 diacid])AQ[Aib]AFIEYLEEGGPSSGAPPPE-NH2), the concentration giving a half-maximal response (EC50) was found to be 1.75 nM on hGcgR; 53.8 nM on hGLP-1R [1]; 0.274 nM on hGLP-1R [2]; 0.0361 nM at hGIPR [3]; 205 nM at human GcgR; 5.74 nM on hGIPR [4].

Take “H-Y[Aib]QGT[αMePhe(2-F)]TSD[4Pal][αMeS]I[αMeL]LD[Orn]K([AEEA-γGlu-γGlu-C18 diacid])AQ[αMe4Pal]EFI[dE][αMeY]LIEGGPSSGAPPPSGGGE-NH2 [Example 1180]”: the EC50 on hGcgR (setting [5]) turned out to be 3.16 nM; on hGLP-1R [1], 35.6 nM; at hGLP-1R [2] (setting [5]), 0.445 nM; at hGIPR [3] (setting [5]), 0.00602 nM; on human GcgR it was 205 nM; at hGIPR [4] it was 0.341 nM.

With `CC[C@H](C)[C@H](NC(=O)[C@H](Cc1ccccc1)NC(=O)[C@H](C)NC(=O)C(C)(C)NC(=O)[C@H](CCC(N)=O)NC(=O)[C@H](C)NC(=O)[C@H](CCCCNC(=O)COCCOCCNC(=O)CC[C@H](NC(=O)CCCCCCCCCCCCCCCCC(=O)O)C(=O)O)NC(=O)[C@H](CCCCN)NC(=O)[C@H](CC(=O)O)NC(=O)[C@H](CC(C)C)NC(=O)[C@](C)(CC(C)C)NC(=O)[C@@H](NC(=O)[C@H](CO)NC(=O)[C@H](Cc1ccncc1)NC(=O)[C@H](CC(=O)O)NC(=O)[C@H](CO)NC(=O)[C@@H](NC(=O)[C@](C)(Cc1ccccc1F)NC(=O)[C@@H](NC(=O)CNC(=O)[C@H](CCC(N)=O)NC(=O)C(C)(C)NC(=O)[C@@H](N)Cc1ccc(O)cc1)[C@@H](C)O)[C@@H](C)O)[C@@H](C)CC)C(=O)N[C@@H](CCC(=O)O)C(=O)N[C@@H](Cc1ccc(O)cc1)C(=O)N[C@@H](CC(C)C)C(=O)N[C@@H](CCC(=O)O)C(=O)N[C@@H](CCC(=O)O)C(=O)NCC(=O)NCC(=O)N1CCC[C@H]1C(=O)N[C@@H](CO)C(=O)N[C@@H](CO)C(=O)NCC(=O)N[C@@H](CCC(=O)O)C(=O)N1CCC[C@H]1C(=O)N1CCC[C@H]1C(=O)N1CCC[C@H]1C(=O)N[C@@H](CCC(=O)O)C(N)=O` [Example 487] (H-Y[Aib]QGT[αMePhe(2-F)]TSD[4Pal]SI[αMeL]LDKK([AEEA-γGlu-C18 diacid])AQ[Aib]AFIEYLEEGGPSSGEPPPE-NH2), the EC50 at hGcgR came out at 5.36 nM; at hGLP-1R [1] it was 27.7 nM; on hGLP-1R [2], 0.639 nM; on hGIPR [3] it was 0.0286 nM; at human GcgR, 477 nM; at hGIPR [4] it was 2.26 nM.

Take “H-Y[Aib]QGTFTSD[4Pal]SQ[αMeL]LDKK([γGlu-γGlu-C18 diacid])AQ[αMe4Pal]AFIEYLIAGGPSSGEPPPSGS-NH2 [Example 968]”: the EC50 on hGcgR (setting [5]) stood at 4.72 nM; at hGLP-1R [1], 103 nM; at hGLP-1R [2] (setting [5]) it was 1.04 nM; at hGIPR [3] (setting [5]), 0.0928 nM; at human GcgR, 625 nM; at hGIPR [4], 11.7 nM.

For “Y[Aib]QGTFTSD[4Pal]SQ[αMeL]LDKK([dE-γGlu-dE-C18 diacid])AQ[αMe4Pal]AFIEYLIE[Aib]GPSSGAPPPSGS-NH2 [Example 923]”, the EC50 was found to be 9.1 nM at hGcgR (setting [5]); 870 nM on hGLP-1R [1]; 6.23 nM at hGLP-1R [2] (setting [5]); 0.123 nM at hGIPR [3] (setting [5]); 1840 nM on human GcgR; 18.5 nM at hGIPR [4].

In the case of `CC[C@H](C)[C@H](NC(=O)[C@H](Cc1ccccc1)NC(=O)[C@H](C)NC(=O)C(C)(C)NC(=O)[C@H](CCC(N)=O)NC(=O)[C@H](C)NC(=O)[C@H](CCCCNC(=O)COCCOCCNC(=O)CC[C@H](NC(=O)CCCCCCCCCCCCCCCCC(=O)O)C(=O)O)NC(=O)[C@H](CCCCN)NC(=O)[C@H](CC(=O)O)NC(=O)[C@H](CC(C)C)NC(=O)[C@](C)(CC(C)C)NC(=O)[C@@H](NC(=O)[C@H](CO)NC(=O)[C@H](Cc1ccc(O)cc1)NC(=O)[C@H](CC(=O)O)NC(=O)[C@H](CO)NC(=O)[C@@H](NC(=O)[C@](C)(Cc1ccccc1F)NC(=O)[C@@H](NC(=O)CNC(=O)[C@H](CCC(N)=O)NC(=O)C(C)(C)NC(=O)[C@@H](N)Cc1ccc(O)cc1)[C@@H](C)O)[C@@H](C)O)[C@@H](C)CC)C(=O)N[C@@H](CCC(=O)O)C(=O)N[C@@H](Cc1ccc(O)cc1)C(=O)N[C@@H](CC(C)C)C(=O)N[C@@H](CCC(=O)O)C(=O)N[C@@H](CCC(=O)O)C(=O)NCC(=O)NCC(=O)N1CCC[C@H]1C(=O)N[C@@H](CO)C(=O)N[C@@H](CO)C(=O)NCC(=O)N[C@@H](C)C(=O)N1CCC[C@H]1C(=O)N1CCC[C@H]1C(=O)N1CCC[C@H]1C(=O)N[C@@H](CO)C(=O)N[C@@H](CCC(=O)O)C(=O)NCC(N)=O` [Example 431], the EC50 at hGcgR was 3.32 nM; at hGLP-1R [1], 35.2 nM; on hGLP-1R [2] it was 0.392 nM; on hGIPR [3], 0.0157 nM; at human GcgR, 352 nM; on hGIPR [4], 3.73 nM.

Consider “H-Y[Aib]QGTFTSD[4Pal]SQ[αMeL]LDKK([AEEA-AEEA-γGlu-C18 diacid])AQ[αMe4Pal]AFIEYLIE[Aib]GPSSGAPPPSGS-NH2 [Example 816]”, for which the EC50 on hGcgR (setting [5]) was found to be 6.57 nM; at hGLP-1R [1], 310 nM; at hGLP-1R [2] (setting [5]) it was 2.69 nM; at hGIPR [3] (setting [5]), 0.297 nM; on human GcgR it was 1100 nM; at hGIPR [4], 15.9 nM.

As to “H-Y[Aib]QGTFTSD[4Pal][αMeS]Q[αMeL]LD[Orn]K([dE-γGlu-C18 diacid])AQ[αMe4Pal]QFIE[αMeY]LIA[Aib]GPSSGAPPPSGGGE-NH2 [Example 1185]”, the EC50 at hGcgR (setting [5]) was 1.64 nM; on hGLP-1R [1], 66.1 nM; on hGLP-1R [2] (setting [5]), 0.762 nM; at hGIPR [3] (setting [5]), 0.0266 nM; at human GcgR it was 206 nM; on hGIPR [4], 2.31 nM.
